Earlier results on 2 molecules are cited in patent EP4570255A1, “SPORICIDAL ANTIMICROBIAL COMPOSITIONS AND USES THEREOF” (Silva, Renata Moisés Iwamizu, priority 2022, dated 2024).

Where a name gives a salt, the structure may show the parent alone.

`[H]/N=C(\N/C(=N/[H])NCCCCCCNC(=N)NC(=N)Nc1ccc(Cl)cc1)Nc1ccc(Cl)cc1` [digluconate salt, 1,1'-hexamethylene-bis-(5-(p-chlorophenyl)biguanide)]: the solubility in water entry is “about 70%”.

Turning to `[H]/N=C(\N/C(=N/[H])NCCCCCCNC(=N)NC(=N)Nc1ccc(Cl)cc1)Nc1ccc(Cl)cc1` [diacetate salt, 1,1'-hexamethylene-bis-(5-(p-chlorophenyl)biguanide)], the solubility in water entry is “about 1.8%”.
